{"source": "patent US4755522A", "about": "“Derivatives of N-[3-(2,4,6-trimethoxybenzoyl)propyl]piperidine, and their use in therapeutics” (priority 1986, dated 1988)", "key": {"[1]": {"system": "mice", "type": "in vivo", "settings": "260 mg/kg I.P. (footnote *)"}, "[2]": {"system": "cardio-vascular system", "assay": "Action on the cardio-vascular system in the anaesthetized dog", "type": "in vivo", "experimental": "(b) Action on the cardio-vascular system (in the dog).\n(§1) 3 dogs (average weight, 12 kg) anaesthetized with nembutal, receive the compound by intra-duodenal route at successive doses of 0.1-0.5-2.5-10 and 20 mg/kg.\nThe arterial pressure, the cardiac rate, the femoral arterial flow, the vertebral arterial flow, the rectal and skin temperatures are all measured. The coloration of the skin is observed.\n(§2) 3 dogs (average weight, 14 kg) anaesthetized with nembutal, received the CRL 41,390 by intra-duodenal route, at successive doses of 0.1-0.5-1-2.5-5-10-20 mg/kg, then a supplementary dose of 10 mg/kg I.V.\nThe arterial pressure, the cardiac frequency, the femoral arterial flow, the vertebral arterial flow, the rectal and cutaneous temperatures, were measured. The coloration of the skin was observed."}, "[3]": {"system": "isoprenaline", "assay": "Effects of isoprenaline on arterial pressure and cardiac rate after the compound (dog)", "type": "in vivo", "experimental": "as §2"}, "[4]": {"system": "noradrenaline", "assay": "Hypertension with noradrenaline after the compound (dog)", "type": "in vivo", "experimental": "as §1, §2\nHypertension to noradrenaline is not modified: at 2 mcg/kg of noradrenaline, the systolic arterial pressure passes, after administration of the product, from 160 to 290 mmHg/161 to 289 mmHg in the control."}, "[5]": {"system": "ectopic heart-beats", "assay": "Ectopic heart-beats in dogs with coronary artery ligature a few weeks earlier", "type": "in vivo, dog", "settings": "I.D.; for minimal effective dose: Canis lupus familiaris, intraduodenal, read-out: dose re-establishing a normal rhythm", "experimental": "as §1\nTwo of these three dogs having undergone a ligature of a coronary artery a few weeks earlier still presented numerous ectopic heart-beats."}, "[6]": {"system": "arrhythmias caused by injection of adrenaline", "assay": "Arrhythmias caused by adrenaline + petroleum ether (dog)", "type": "in vivo", "settings": "39.1 mg/kg I.D.", "experimental": "In the third dog, arrhythmias were caused by injection of adrenaline (10 mcg/kg), preceded by an intra-trachealinjection of petroleum ether (0.1 ml/kg before and after administration of the 39.1 mg/kg (in cumulative doses) of the compound. On the E.C.G., the number of beats of sinusoidal origin and the number of ectopic beats per minute are counted which follow the injection of adrenaline. |Dose of compound | Number of beats in 1 minute |mg/kg I.D. ectopic sinusoidal"}, "[7]": {"system": "left descending coronary artery ligature", "assay": "Dog with left descending coronary artery ligatured 24 hours earlier, I.V.", "type": "in vivo", "experimental": "In a dog of which the left descending coronary artery had been ligatured 24 hours earlier, the compound was administered by intravenous route at increasing doses: 0.5-1-2.5-5-10 mg/kg. every 30 minutes."}, "[8]": {"system": "arrhythmias caused by adrenaline", "assay": "Arrhythmias caused by adrenaline I.V., 4 days after coronary ligature (dog)", "type": "in vivo", "experimental": "4 days after the ligature of the coronary, this same dog received injections I.V. of 5 mcg/kg of adrenaline which caused arrhythmias. The number of ectopic beats caused by adrenaline reduces starting from the dose of 5 mg/kg I.V. while the percentage of ectopic beats referred to the total cardiac frequency is 79% in comparison with 100% in the control and 46% 10 minutes after the dose of 10 mg/kg (64% after 40 minutes, 88% after 90 minutes)."}, "[9]": {"system": "awakened dog", "assay": "Toxic effects in the awakened dog, I.V. cumulative", "type": "in vivo"}, "[10]": {"system": "ventricular fibrillation (V.F.) by inhalation of chloroform", "assay": "Lawson's test in mice (ventricular fibrillation by inhalation of chloroform)", "type": "in vivo", "from_the_text": "(c) Anti-arrhythmic action in the mouse. Research on the anti-arrhythmic activity by intraperitoneal route on Lawson's test in mice (ventricular fibrillation (V.F.) by inhalation of chloroform, all or nothing response) has given the following results (10 mice per dose)."}, "[11]": {"system": "arrhythmias with K-strophanthin", "assay": "Arrhythmias with K-strophanthin in the guinea-pig", "type": "in vivo", "settings": "10 mg/kg I.V.", "experimental": "(§3) The compound was administered by intravenous route at a dose of 10 mg/kg to a series of 10 albino guinea-pigs of 380 to 495 g, anaesthetized with urethane.\n(§4) 5 minutes later, they receive an I.V. perfusion of the product causing arrhythmia at a dosage of 0.09 mg/min. in a volume of 0.6 ml/min.\n(§5) The compound is compared with quinidine at a dose of 5 mg/kg I>V> and with a series of controls.\n(§6) Lots are drawn for the treatments.\nA--Action on arrhythmias with K-strophanthin."}, "[12]": {"system": "arrhythmias with aconitine", "assay": "Arrhythmias with aconitine in the guinea-pig", "type": "in vivo", "experimental": "as §3, §4, §5, §6\nB--Action on arrhythmias with aconitine."}, "[13]": {"system": "cardiac arrhythmias", "assay": "Treatment of cardiac arrhythmias in man", "type": "in vivo", "settings": "capsules or tablets 200 mg, 3 to 4 per day", "experimental": "The compound of example 1 in the form of capsules or tablets with doses of 200 mg, 3 to 4 per day, has given good results in the treatment of cardiac arrhythmias in man."}}, "note": "Values joined by “and” are separate entries in the source; they are usually repeats but may differ in a detail not shown here. Equal values may be shown once. “Also recorded” adds a separate entry of the source. Read-outs that look alike come from different tables or passages of the source."}
{"smiles": "COc1cc(OC)c(C(=O)CCCN2CCCC(CO)C2)c(OC)c1.Cl", "note": "(stereo not shown) [CRL 41,391, N-[3-(2,4,6-trimethoxybenzoyl)propyl]-3-piperidinemethanol hydrochloride]", "values": [{"measurement": "convulsions", "setting": "[1]", "value": "convulsions"}, {"measurement": "effect on heart rate", "setting": "[2]; 20 mg/kg I.D.", "value": "slightly reduces the heart rate"}, {"measurement": "minimal effective dose", "setting": "[2]; Canis lupus familiaris, intraduodenal, I.D., read-out: dose from which femoral flow increases", "value": 5, "unit": "mg/kg"}, {"measurement": "effect on rectal and cutaneous temperatures", "setting": "[2]; I.D.", "value": "does not modify the rectal and cutaneous temperatures"}, {"measurement": "effect on vertebral flow", "setting": "[2]; I.D.", "value": "reduces the vertebral flow"}, {"measurement": "effect on femoral flow", "setting": "[2]; I.D., starting at 5 mg/kg", "value": "increases the femoral flow"}, {"measurement": "effect on the arterial pressure", "setting": "[2]; intra-duodenal, successive doses to 20 mg/kg, nembutal", "value": "no effect on the arterial pressure"}, {"measurement": "diastolic arterial pressure after the product, before isoprenaline", "setting": "[3]; 39.1 mg/kg I.D. cumulative, control 120", "value": 107, "unit": "mmHg"}, {"measurement": "cardiac rate after the product, before isoprenaline", "setting": "[3]; 39.1 mg/kg I.D. cumulative, control 157", "value": 160, "unit": "beats/minute"}, {"measurement": "diastolic arterial pressure after the product, with isoprenaline", "setting": "[3]; 10 mcg/kg isoprenaline I.V., 39.1 mg/kg I.D. cumulative, control 37", "value": 36, "unit": "mmHg"}, {"measurement": "change of diastolic arterial pressure with isoprenaline", "setting": "[3]; 10 mcg/kg isoprenaline I.V., 39.1 mg/kg I.D. cumulative, control 83", "value": 71, "unit": "mmHg"}, {"measurement": "cardiac rate after the product, with isoprenaline", "setting": "[3]; 10 mcg/kg isoprenaline I.V., 39.1 mg/kg I.D. cumulative, control 273", "value": 255, "unit": "beats/minute"}, {"measurement": "effects of isoprenaline on arterial pressure and cardiac rate", "setting": "[3]; after accumulated dose 39.1 mg/kg I.D.", "value": "very slightly reduced"}, {"measurement": "systolic pressure after the product, before noradrenaline", "setting": "[4]; 39.1 mg/kg I.D. cumulative, control 153", "value": 149, "unit": "mmHg"}, {"measurement": "systolic pressure after the product, with noradrenaline", "setting": "[4]; 2 mcg/kg noradrenaline I.V., 39.1 mg/kg I.D. cumulative, control 271", "value": 256, "unit": "mmHg"}, {"measurement": "hypertension with noradrenaline", "setting": "[4]; after 39.1 mg/kg I.D. cumulative", "value": "slightly reduced"}, {"measurement": "minimal effective dose", "setting": "[5]; one dog", "value": 2.5, "unit": "mg/kg"}, {"measurement": "minimal effective dose", "setting": "[5]; the other dog", "value": 10, "unit": "mg/kg"}, {"measurement": "normal rhythm", "setting": "[5]; two dogs", "value": "re-established a normal rhythm in these two dogs"}, {"measurement": "number of ectopic beats caused by adrenaline+petroleum ether", "setting": "[6]", "value": "strongly reduces the number of ectopic beats"}, {"measurement": "Number of beats in 1 minute, sinusoidal", "setting": "[6]; 35 at dose 0", "value": 173}, {"measurement": "Number of beats in 1 minute, ectopic", "setting": "[6]; 163 at dose 0", "value": 26}, {"measurement": "sinusoidal beats", "setting": "[7]; 2.5 mg/kg I.V.", "value": "≥ 5", "unit": "%"}, {"measurement": "sinusoidal beats", "setting": "[7]; 5 mg/kg I.V., 5 minutes after injection", "value": 19, "unit": "%"}, {"measurement": "vomitting", "setting": "[7]; 10 mg/kg I.V.", "value": "brief vomitting"}, {"measurement": "sinusoidal beats", "setting": "[7]; 20 minutes after the injection", "value": 41, "unit": "%"}, {"measurement": "sinusoidal beats", "setting": "[7]; 40 minutes", "value": 25, "unit": "%"}, {"measurement": "sinusoidal beats", "setting": "[7]; 60 minutes", "value": 15, "unit": "%"}, {"measurement": "minimal effective dose", "setting": "[7]; Canis lupus familiaris, iv, I.V., zero sinusoidal beats in the control, read-out: dose from which sinusoidal beats increase", "value": 2.5, "unit": "mg/kg"}, {"measurement": "change of cardiac frequency", "setting": "[7]; after 10 mg/kg I.V.", "value": -25, "unit": "%"}, {"measurement": "cardiac frequency", "setting": "[7]; after 10 mg/kg I.V., from 231", "value": 174, "unit": "beats/minute"}, {"measurement": "ectopic beats referred to the total cardiac frequency", "setting": "[8]; 5 mg/kg I.V., control 100%", "value": 79, "unit": "%"}, {"measurement": "ectopic beats referred to the total cardiac frequency", "setting": "[8]; 10 mg/kg I.V., after 40 minutes", "value": 64, "unit": "%"}, {"measurement": "ectopic beats referred to the total cardiac frequency", "setting": "[8]; 10 mg/kg I.V., after 90 minutes", "value": 88, "unit": "%"}, {"measurement": "ectopic beats referred to the total cardiac frequency", "setting": "[8]; 10 minutes after 10 mg/kg I.V.", "value": 46, "unit": "%"}, {"measurement": "minimal effective dose", "setting": "[8]; Canis lupus familiaris, iv, I.V., adrenaline 5 mcg/kg I.V., read-out: dose from which ectopic beats caused by adrenaline are reduced", "value": 5, "unit": "mg/kg"}, {"measurement": "nictitating membrane", "setting": "[9]; 70 mg/kg I.V. total", "value": "released for 10 minutes"}, {"measurement": "vomiting, cumulative dose", "setting": "[9]; I.V., 5 minutes after the injection, hydrochloride", "value": "40 mg/kg and 70 mg/kg"}, {"measurement": "somnolence", "setting": "[9]; I.V., total 70 mg/kg", "value": "a certain somnolence was observed"}, {"measurement": "% of mice not presenting V.F.", "setting": "[10]; 5 mg/kg I.P.", "value": 22, "unit": "%"}, {"measurement": "% of mice not presenting V.F.", "setting": "[10]; 10 mg/kg I.P.", "value": 50, "unit": "%"}, {"measurement": "% of mice not presenting V.F.", "setting": "[10]; 20 mg/kg I.P.", "value": 70, "unit": "%"}, {"measurement": "appearance of incidents in the E.C.G. due to K-strophanthin", "setting": "[11]", "value": "significantly delays"}, {"measurement": "cardiac frequency", "setting": "[11]", "value": "does not significantly modify the cardiac frequency"}, {"measurement": "increase of cardiac frequency (average)", "setting": "[12]; 10 mg/kg I.V.", "value": 12, "unit": "beats/minute"}, {"measurement": "action on aconitine compared with quinidine", "setting": "[12]; 10 mg/kg I.V. vs quinidine 5 mg/kg", "value": "greater than that observed after pre-treatment with 5 mg/kg of quinidine"}, {"measurement": "cardiac frequency (conclusion, K-strophanthin and aconitine)", "setting": "[12]; 10 mg/kg I.V., anaesthetized guinea-pig", "value": "without modifying or with very moderate increase in the cardiac frequency"}, {"measurement": "appearance of incidents in the E.C.G. due to aconitine", "setting": "[12]; 10 mg/kg I.V., hydrochloride", "value": "significantly retards; also recorded: significantly delays"}, {"measurement": "treatment of cardiac arrhythmias in man", "setting": "[13]", "value": "good results"}]}
